The text below walks through data of US10807948B2, “Aromatic compounds and uses thereof” (PELOTON THERAPEUTICS, INC., priority 2015, dated 2020).

Entries after “also recorded” stand apart in the source; their conditions may differ.

In assay [1] the target is T1, HIF-2α HIS TAG-PASB Domain (Homo sapiens, UniProt Q99814).
T1 construct: 100 nM HIF-2α HIS TAG-PASB Domain
Briefly: HIF-2α Scintillation Proximity Assay (SPA). It is filed as binding. The following applies: displacement of tritiated probe from HIF-2α PASB domain. Here is the method: The total assay volume was about 100 μL in the following configuration: 2 μL compound in 100% DMSO, 88 μL buffer with protein and probe and 10 μL of SPA beads. […] The percent inhibition was determined and IC50 values were calculated using the Dotmatics system based on the following equation: % inhibition=[(high control−sample)/(high control−low control)]×100.
(In general: Scintillation proximity formats need no separation of bound from free tracer.)

A further assay concerns 786-O-Hif-Luc cells. Put plainly: Luciferase Assay. The class given is cell-based. The following applies: about 24 hours. How it is done: 786-O-Hif-Luc single clone cells were obtained by infecting 786-O cells (ATCC® CRL-1932™) with commercial lentivirus that delivers a luciferase gene driven by multiple HIF responsive elements (Cignal Lenti HIF Reporter (luc): CLS-007L, Qiagen) at Multiplicity of Infection (MOI) of 25 for 24 hours. […] A pool of infected cells were then selected against 2 μg/mL of puromycin (P8833, Sigma) for 10 days followed by limited dilution to select single clones. […] For the luciferase assay, about 7500 786-O-Hif-Luc cells in 90 μL growth medium were seeded into each well of a 96-well white opaque plate (08-771-26, Fisher scientific) a day before treatment with the layout presented in FIG. 5.
Each concentration was tested in triplicate. After about 24 hours, luciferase activity was determined using ONE-Glo Luciferase Assay Reagent (E6110, Promega) following the manufacturer's recommended procedure. EC50 were calculated using Dotmatics software.

The test system of assay [2] is renal cell carcinoma 786-O xenograft. Put plainly: In vivo PK/PD study: mRNA levels of genes in tumor by qRT-PCR. Set-up: species or system SCID/Biege mice. The following applies: 3 mg/kg oral gavage, six times at 12 hour intervals; 12 hours post last dose. Here is the method:
(§1) About 5×10^6 renal cell carcinoma 786-O tumor cells (ATCC® CRL-1932™, VHL and HIF-1α null cell line) in PBS and Matrigel (1:1 in volume) were injected subcutaneously at the right flanks of SCID/Biege mice at 6-7 weeks of age for xenograft development. When the xenografts reached about 400 mm^3 in size, the tumor bearing mice were randomly divided into 2 groups (n=3). Plasma was collected prior to treatment by retro-orbital bleeding. The animals were treated with either vehicle or Compound 95 at 3 mg/kg by oral gavage (six times at 12 hour intervals). All animals were sacrificed at 12 hours post last dose. Tumor, kidney, and plasma samples were collected from each animal. Total RNA was extracted from the tumors and kidneys. The mRNA levels of several genes were determined by qRT-PCR (FIG. 1).
Total RNA was extracted from the tumors, and the expressions of putative HIF-1α and HIF-2α regulated genes were determined by qRT-PCR.
On the technique in general: Real-time PCR tracks product formation cycle by cycle.

For assay [3] the test system is unchanged. Briefly: In vivo PK/PD study: human VEGFA in plasma by ELISA. Set-up: species or system SCID/Biege mice. The following applies: 3 mg/kg oral gavage, six times at 12 hour intervals. How it is done:
as §1
The level of human VEGFA was determined by ELISA assay.
In general terms: ELISA stands for enzyme-linked immunosorbent assay.

For assay [4] the test system is unchanged. Briefly: In vivo efficacy study, 786-O xenograft. The following applies: for Tumor size (mm^3) Mean ± SEM: after 28 days of dosing. Set-up: species or system SCID/Biege mouse.
For a further assay, the system named is 786-O cells. Briefly: VEGF ELISA Assay. The class given is cell-based. The following applies: Homo sapiens, 786-0, VEGF concentration in cell culture medium. How it is done:
About 7500 786-0 cells in 180 μL of growth medium were seeded into each well of a 96-well, white, clear bottom plate (07-200-566, Fisher Scientific) on day one in the layout presented in FIG. 3.
Each concentration was plated in duplicate. About 20 hours later, medium was removed by suction and each well was supplied with 180 μL of growth medium. About 20 μL freshly-made 10× compound stocks were added to each well. […] The EC50 was calculated by GraphPad Prism using the dose-response-inhibition (four parameter) equation. The cell-seeded plate was then subjected to CellTiter-Glo luminescence cell viability assay (Promega) by adding 50 μL of Celltiter Glo reagent into each well and shaking the plate for 8 minutes at 550 rpm (Thermomixer R, Eppendorf) then the luminescence signal immediately read in a plate reader (3 second delay, 0.5 second/well integration time, Synergy 2 multi Detection Microplate reader).

T1 sequence (Q99814 239-348): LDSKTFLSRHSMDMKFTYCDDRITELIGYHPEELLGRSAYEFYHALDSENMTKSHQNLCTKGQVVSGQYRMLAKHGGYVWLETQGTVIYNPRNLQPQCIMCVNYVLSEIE

On to `CS(=O)(=O)c1ccc(OC2CC(F)(F)C2)c2c1[C@H](O)[C@H](F)[C@@H]2F` (racemic) [Compound 98, (racemic)-4-(3,3-difluorocyclobutoxy)-2,3-difluoro-7-(methylsulfonyl)-2,3-dihydro-1H-inden-1-ol], for which, in assay [1], the IC50 – broadly, the midpoint of a concentration-inhibition curve – was less than 50 nM. With `O=S(=O)(CF)c1ccc(OC2CC(F)(F)C2)c2c1[C@H](O)[C@H](F)[C@@H]2F` (racemic) [Compound 99, (racemic)-4-(3,3-difluorocyclobutoxy)-2,3-difluoro-7-((fluoromethyl)sulfonyl)-2,3-dihydro-1H-inden-1-ol], the half-maximal inhibitory concentration (IC50) in assay [1] was less than 50 nM.

`N#Cc1cncc(-c2ccc(S(=O)(=O)C(F)(F)F)c3c2CC(F)(F)C3O)c1` (stereo not drawn) [Compound 91]: the IC50 in assay [1] was more than 1000 nM. In the assay with 786-O-Hif-Luc cells, the concentration giving a half-maximal response (EC50) (as a rule, the concentration that produces a half-maximal response) was more than 1000 nM. Turning to `O=S(=O)(c1ccc(OCC2(F)COC2)c2c1[C@H](O)C(F)(F)C2)C(F)(F)F` [Compound 94, (S)-2,2-difluoro-4-((3-fluorooxetan-3-yl)methoxy)-7-((trifluoromethyl)sulfonyl)-2,3-dihydro-1H-inden-1-ol], the 50% effective concentration (EC50) in the assay with 786-O-Hif-Luc cells was less than 50 nM. As for `CS(=O)(=O)c1ccc(OC2CC(F)(F)C2)c2c1[C@H](O)C(F)(F)[C@@H]2F` [Compound 95, (1S,3R)-4-(3,3-difluorocyclobutoxy)-2,2,3-trifluoro-7-(methylsulfonyl)-2,3-dihydro-1H-inden-1-ol], in assay [2], the “CCND1 mRNA level in tumor” value is given as “significant reduction; also recorded: reduced”, the “GLUT1 mRNA level in tumor” value is listed as “significant reduction; also recorded: reduced”, the “PAI-1 mRNA level in tumor” value is given as “significant reduction; also recorded: reduced” and the “PGK1 mRNA level in tumor (HIF-1α specific target gene)” value is recorded as “no significant change; also recorded: no significant effect”. For the same compound, the “VEGFA mRNA level in tumor” value in assay [2] is recorded as “significant reduction; also recorded: reduced”. In assay [3], the “human VEGFA plasma level” value is listed as “significant reduction; also recorded: reduced”. Further, the “Tumor size (mm^3) Mean ± SEM” value in assay [4] (1 mg/kg QD) was determined as 525.72 mm^3. Besides, the “Tumor size (mm^3) Mean ± SEM” value in assay [4] (3 mg/kg QD) came to 154.52 mm^3. Moreover, the “Tumor size (mm^3) Mean ± SEM” value in assay [4] (10 mg/kg QD) came out at 89.45 mm^3. Besides, the “effect on tumor growth / tumor sizes” value in assay [4] (1, 3 and 10 mg/kg QD for 28 days, single agent) was “statistically significant reduction of tumor sizes for all treatment groups; also recorded: tumor growth inhibition and regression”. Consider `O=S(=O)(CF)c1ccc(OC2CC(F)(F)C2)c2c1[C@H](O)C(F)(F)[C@@H]2F` [Compound 97, (1S,3R)-4-(3,3-difluorocyclobutoxy)-2,2,3-trifluoro-7-((fluoromethyl)sulfonyl)-2,3-dihydro-1H-inden-1-ol], for which, in the assay on 786-O cells, the 50% effective concentration (EC50) is less than 50 nM. Take `O[C@H]1c2c(C(F)(F)F)ccc(OC3CC(F)(F)C3)c2CC1(F)F` [Compound 109]: the half-maximal effective concentration (EC50) in the assay on 786-O cells and in the assay on 786-O-Hif-Luc cells was less than 50 nM each time. With `CCOc1ccc(S(=O)(=O)C(F)(F)F)c2c1CC(F)(F)C2O` (stereo not drawn) [Compound 113], the IC50 in assay [1] fell in the range of 50 to 249 nM. The same measure, in the same setting: the figure for `N#CC1(COc2ccc(S(=O)(=O)C(F)(F)F)c3c2CC(F)(F)C3O)CC1` (stereo not drawn) [Compound 142] is less than 50 nM. With `CC1CC(Oc2ccc(S(=O)(=O)C(F)(F)F)c3c2CC(F)(F)C3O)CCO1` (stereo not drawn) [Compound 148], the EC50 with 786-O-Hif-Luc cells is less than 50 nM.

The compound `COC[C@@H](C)Oc1ccc(S(=O)(=O)C(F)(F)F)c2c1CC(F)(F)[C@H]2O` [Compound 184] gave an EC50 in the assay on 786-O-Hif-Luc cells of less than 50 nM.

`FC(F)COc1ccc(C(F)(F)F)c2c1CC(F)(F)C2F` (stereo not drawn) [Compound 214] had an IC50 in assay [1] of more than 1000 nM. `OC1c2c(OCC(F)F)ccc(C(F)(F)F)c2C(F)C1(F)F` (stereo not drawn) [Compound 215]: the IC50 in assay [1] is more than 1000 nM.

`OC1c2c(C(F)(F)F)ccc(OCC(F)F)c2CC1F` (stereo not drawn) [Compound 221] displayed an IC50 in assay [1] of 50 to 249 nM. This compound returned an EC50 in the assay on 786-O-Hif-Luc cells of 50 to 249 nM.

Consider `CO[C@H]1C[C@H](Oc2ccc(S(=O)(=O)C(F)(F)F)c3c2CC(F)(F)[C@H]3O)C1` [Compound 239], for which, in assay [1], the IC50 is less than 50 nM. Turning to `CS(=O)(=O)c1ccc(O[C@H]2C[C@H](F)C2)c2c1[C@H](O)C(F)(F)[C@@H]2F` [Compound 261], the concentration for a half-maximal effect (EC50) with 786-O-Hif-Luc cells is less than 50 nM. `CS(=O)(=O)c1ccc(OC2CCC2)c2c1[C@H](O)C(F)(F)[C@@H]2F` [Compound 281] yielded an EC50 in the assay with 786-O-Hif-Luc cells of 50 to 249 nM. In turn, `CS(=O)(=O)c1ccc(OCC2CC(F)(F)C2)c2c1[C@H](O)C(F)(F)[C@@H]2F` [Compound 287] showed a half-inhibitory concentration (IC50) in assay [1] of less than 50 nM.
